Data taken from the supplement of paper PMC10307832.

How the values were obtained:
Experiment in all cases: relative viability (nuclei count vs DMSO), 5 days (fraction); higher = more cells survive
[1] = compound: C/C(=N\NC(=S)N1CCC1)/C2=CC=CC=N2 + C[C@]1(O)C[C@@H](c2nc(-c3ccc4ccc(-c5ccccc5)nc4c3)c3c(N)nccn32)C1 [Linsitinib] (partner 1 µM)
Outline: (§1)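 Lung cancer cell lines were seeded in 1536-well plates and dosed by pin tool the next day, with either a single drug or a fixed anchor-drug dose combined with five library-drug doses (not always all listed) spaced in √10 steps. Five days later, one step fixed the cells and stained their nuclei (final 0.05% Triton X-100, 1% formaldehyde, 1 ug/ml Hoechst), and nuclei were counted on 4× images. Relative viability is the nuclei count in treated wells divided by the count in vehicle wells, and each value is the median of duplicate plates.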

[2] = compound: C/C(=N\NC(=S)N1CCC1)/C2=CC=CC=N2 + O=C(CCCCCCC(=O)Nc1ccccc1)NO [Vorinostat] (partner 1 µM)
Outline: as §1

[3] = compound: C/C(=N\NC(=S)N1CCC1)/C2=CC=CC=N2 + O=C(c1cc(Cc2n[nH]c(=O)c3ccccc23)ccc1F)N1CCN(C(=O)C2CC2)CC1 [Olaparib] (partner 8 µM)
Outline: as §1

[4] = compound: C/C(=N\NC(=S)N1CCC1)/C2=CC=CC=N2 + Nc1nc2[nH]cc(CCc3ccc(C(=O)N[C@@H](CCC(=O)O)C(=O)O)cc3)c2c(=O)[nH]1 [Pemetrexed] (partner 0.2 µM)
Outline: as §1

Cell Line	relative viability ([1]; first compound 0.05 µM)	relative viability ([1]; first compound 0.1581 µM)	relative viability ([1]; first compound 0.5 µM)	relative viability ([1]; first compound 1.581 µM)	relative viability ([1]; first compound 5 µM)	relative viability ([2]; first compound 0.05 µM)	relative viability ([2]; first compound 0.1581 µM)	relative viability ([2]; first compound 0.5 µM)	relative viability ([2]; first compound 1.581 µM)	relative viability ([2]; first compound 5 µM)	relative viability ([3]; first compound 0.05 µM)	relative viability ([3]; first compound 0.1581 µM)	relative viability ([3]; first compound 0.5 µM)	relative viability ([3]; first compound 1.581 µM)	relative viability ([3]; first compound 5 µM)	relative viability ([4]; first compound 0.05 µM)	relative viability ([4]; first compound 0.1581 µM)	relative viability ([4]; first compound 0.5 µM)	relative viability ([4]; first compound 1.581 µM)	relative viability ([4]; first compound 5 µM)
NCI-H1666	0.213	0.244	0.231	0.22	0.231	0.575	0.579	0.538	0.501	0.494	0.601	0.547	0.479	0.461	0.523	0.532	0.638	0.54	0.442	0.473
NCI-H1734	0.141	0.183	0.16	0.142	0.131	0.169	0.174	0.145	0.12	0.124	0.148	0.13	0.15	0.114	0.1	0.17	0.166	0.188	0.152	0.135
NCI-H1755	0.528	0.959	0.194	0.22	0.215	0.294	0.226	0.223	0.233	0.225	0.632	0.858	0.288	0.29	0.224	0.394	0.302	0.273	0.31	0.292
NCI-H1793	0.22	0.233	0.132	0.142	0.167	0.189	0.139	0.127	0.124	0.133	0.255	0.143	0.169	0.123	0.107	0.158	0.162	0.151	0.112	0.136
NCI-H1915	0.523	1.03	0.228	0.176	0.153	0.108	0.0989	0.117	0.11	0.118	0.155	0.12	0.127	0.122	0.137	0.128	0.142	0.163	0.133	0.126
NCI-H1944	0.875	1.06	0.6	0.259	0.196	0.17	0.154	0.137	0.126	0.135	0.27	0.426	0.14	0.136	0.138	0.212	0.15	0.133	0.112	0.124
NCI-H1975	0.157	0.151	0.145	0.158	0.163	0.173	0.167	0.136	0.154	0.167	0.111	0.113	0.118	0.111	0.133	0.133	0.144	0.141	0.155	0.145
NCI-H1993	0.643	0.703	0.58	0.614	0.53	0.337	0.539	0.319	0.338	0.446	0.418	0.426	0.355	0.334	0.431	0.382	0.487	0.436	0.405	0.375
NCI-H2009	0.139	0.163	0.154	0.165	0.138	0.0755	0.107	0.129	0.103	0.0974	0.0968	0.101	0.125	0.154	0.123	0.0997	0.122	0.134	0.15	0.122
NCI-H2023	0.1	0.0863	0.0724	0.0807	0.0886	0.082	0.0635	0.0543	0.0492	0.043	0.0912	0.0578	0.0664	0.0644	0.0565	0.0924	0.0863	0.0863	0.0559	0.0883
NCI-H2085	0.222	0.307	0.242	0.223	0.215	0.339	0.379	0.355	0.288	0.305	0.307	0.25	0.293	0.281	0.278	0.248	0.264	0.237	0.178	0.244
NCI-H2087	0.305	0.37	0.301	0.244	0.178	0.145	0.0717	0.14	0.0948	0.098	0.123	0.113	0.138	0.144	0.0767	0.16	0.181	0.214	0.163	0.119
NCI-H2126	0.277	0.724	0.268	0.223	0.246	0.184	0.211	0.197	0.186	0.168	0.344	0.889	0.186	0.191	0.17	0.235	0.221	0.212	0.219	0.208
NCI-H2228	0.179	0.273	0.233	0.144	0.213	0.231	0.15	0.166	0.156	0.145	0.125	0.142	0.138	0.115	0.107	0.107	0.147	0.116	0.0863	0.121
NCI-H2347	0.295	0.372	0.325	0.255	0.314	0.315	0.305	0.227	0.276	0.243	0.334	0.294	0.298	0.274	0.28	0.33	0.308	0.3	0.27	0.291
NCI-H2405	0.193	0.207	0.31	0.225	0.223	0.241	0.267	0.252	0.217	0.222	0.259	0.272	0.268	0.252	0.208	0.243	0.238	0.251	0.215	0.215
NCI-H3122	0.145	0.143	0.169	0.246	0.221	0.111	0.077	0.106	0.121	0.103	0.118	0.291	0.0987	0.145	0.142	0.0953	0.11	0.11	0.149	0.15
